Test results taken from the NIST ThermoML archive (doi:10.1021/acs.jced.8b00879).
Numbers after ± are expanded uncertainties.

Tests used:
[1] = 85 kPa, Liquid, Capillary tube (Ostwald / Ubbelohde) method
[2] = mn = molality of the nth substance listed, in mol/kg; conditions: 85 kPa, Liquid, m2 = 0; for viscosity: Capillary tube (Ostwald / Ubbelohde) method

Compound: O [water]
- viscosity ([1]; 288.15 K): 1.259 ± 0.12 mPa·s
- viscosity ([1]; 298.15 K): 0.995 ± 0.12 mPa·s
- viscosity ([1]; 308.15 K): 0.819 ± 0.12 mPa·s
- viscosity ([1]; 318.15 K): 0.686 ± 0.12 mPa·s

Compound: O [water] + C[N+](C)(C)CCO.NCC(=O)[O-]
- viscosity ([2]; 288.15 K): 1.259 ± 0.12 mPa·s
- viscosity ([2]; 298.15 K): 0.995 ± 0.12 mPa·s
- mass density ([2]; 298.15 K, Vibrating tube method): 997.38 ± 0.43 kg/m3
- viscosity ([2]; 308.15 K): 0.819 ± 0.12 mPa·s
- viscosity ([2]; 318.15 K): 0.686 ± 0.12 mPa·s

Compound: O [water] + C[N+](C)(C)CCO.O=C([O-])[C@@H]1CCCN1
- viscosity ([2]; 288.15 K): 1.259 ± 0.12 mPa·s
- viscosity ([2]; 298.15 K): 0.995 ± 0.12 mPa·s
- viscosity ([2]; 308.15 K): 0.819 ± 0.12 mPa·s
- viscosity ([2]; 318.15 K): 0.686 ± 0.12 mPa·s
